The results in this text go back to ChEMBL document CHEMBL1201862, “PubChem BioAssay data set” (2004).

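All cell lines were grown in 96-well plates and treated with compound for 48 hours. Abbreviation: GI50, concentration required for 50% inhibition of growth.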 Activity calls are given as the source filed them. Cut-off read from the data, not from the text of the source: active = GI50 up to about 1.1 µM and inactive = higher. Where only a bound is given, the exact number is not on record here.

Holding throughout (test): NCI-60 cell line screen, 48 h
Test [1] concerns PC-3.
Test [2] has as its system HOP-62.
Test [3] relates to NCI-H23.
For test [4], the system named is MCF7.
Test [5] has as its system OVCAR-3.
The subject of test [6] is A549.
Test [7] has as its system TK-10.
In test [8] the test system is NCI-H460.
Test [9] deals with HT-29.
In test [10] the test system is RXF 393.
The test system of test [11] is IGROV-1.
Test [12] concerns RPMI-8226.
For test [13], the system named is LOX IMVI.
The subject of test [14] is ACHN.
Test [15] has as its system 786-0.
For test [16], the system named is COLO 205.
Test [17] deals with SF-539.
The test system of test [18] is HCT-116.
For test [19], the system named is SK-MEL-2.
Test [20] has as its system NCI-H226.

Consider `CC1=NN(C(=O)CC(=O)NC(=O)/C=C\c2ccccc2)C(=O)C1/N=N/c1ccc([N+](=O)[O-])cc1` (stereo not given), for which the GI50 is > 100 µM (inactive) in [1]; > 100 µM (inactive) in [2]; 40.2 µM (inactive) in [3]; > 100 µM (inactive) in test [4]; 50.7 µM (inactive) in test [5]; 84.5 µM (inactive) in [6]. In addition, the GI50 in test [7] is 48.5 µM (inactive); in test [8] it was > 100 µM (inactive); in test [9], > 100 µM (inactive); in [10] it was > 100 µM (inactive); in test [11], 58.3 µM (inactive); in test [12], 85.5 µM (inactive). Further, the GI50 in [13] is > 100 µM (inactive); in test [14], 37.4 µM (inactive); in test [15], 83.8 µM (inactive); in [16], > 100 µM (inactive); in [17] it was > 100 µM (inactive); in [18], 35.6 µM (inactive).

Consider `CC(=O)Oc1ccc2c(c1OC(C)=O)CCC1C2=CC[C@]2(C)C(=O)CCC12` (stereo not given in full), for which the GI50 in [1] was 3.24 µM (inactive); in [2] it was 19.7 µM (inactive); in [3] it was 21.4 µM (inactive); in test [4], 14.2 µM (inactive); in test [5] it was 2.44 µM (inactive); in test [6], 16 µM (inactive). Besides, the GI50 was 13.9 µM (inactive) in test [7]; 16.4 µM (inactive) in test [8]; 15.1 µM (inactive) in test [19]; 17.6 µM (inactive) in test [9]; 4.73 µM (inactive) in test [11]; 1 µM (active) in [12]. The GI50 in test [14] is 11.8 µM (inactive); in test [15], 2.47 µM (inactive); in [16] it was 14.5 µM (inactive); in test [17] it was 14.2 µM (inactive); in test [18] it was 4.92 µM (inactive).

Regarding `COc1cc([C@@H]2c3cc4c(cc3[C@@H](NC(=O)c3cccc([N+](=O)[O-])c3)C3COC(=O)[C@@H]32)OCO4)cc(OC)c1O` (stereo not given in full), the GI50 in [2] was 0.0398 µM (active); in [3] it was 0.189 µM (active); in test [5], 3.34 µM (inactive); in test [6], 0.0442 µM (active); in test [7], 2.25 µM (inactive); in test [8], < 0.01 µM (active). In addition, the GI50 in test [19] is 2.77 µM (inactive); in [9], 1.7 µM (inactive); in test [20], 0.127 µM (active); in test [10], 2.34 µM (inactive); in test [11] it was 3.85 µM (inactive); in test [12], 0.452 µM (active). In addition, the GI50 was 0.295 µM (active) in test [13]; 0.128 µM (active) in test [14]; 0.202 µM (active) in test [15]; 4.66 µM (inactive) in test [16]; 0.294 µM (active) in test [17]; 1.5 µM (inactive) in [18].

Take `Cc1cccc(C)c1NC(=O)C(=O)Cc1nc2ccccc2s1`: the GI50 in test [2], in test [3], in [5], in test [6], in [7] and in test [8] was > 100 µM (inactive) throughout. Also, the GI50 was > 100 µM (inactive) in test [19]; > 100 µM (inactive) in test [9]; > 100 µM (inactive) in [20]; 50.9 µM (inactive) in [10]; > 100 µM (inactive) in [11]; > 100 µM (inactive) in test [12]. For the same compound, the GI50 in test [13], in test [14], in [15], in test [16], in test [17] and in [18] was > 100 µM (inactive) throughout.

On to `C[C@]12CCC(=O)C=C1CC[C@@H]1C2CC[C@@]2(C)C1CC[C@@H]2OC(=O)C12OC1CCC2=O` (stereo not given in full), for which the GI50 in test [2] was 30.7 µM (inactive); in [3], 18.8 µM (inactive); in test [5] it was 18.9 µM (inactive); in test [6] it was 25 µM (inactive); in test [7], 20 µM (inactive); in [8], 17.9 µM (inactive). For the same compound, the GI50 in test [19] is 15.2 µM (inactive); in [9] it was 18.9 µM (inactive); in test [20] it was 19.1 µM (inactive); in test [10], 5.16 µM (inactive); in test [11] it was 10.8 µM (inactive); in [12], 20.9 µM (inactive). For the same compound, the GI50 in test [13] was 16 µM (inactive); in [14], 15.6 µM (inactive); in test [15], 16.5 µM (inactive); in [16] it was 17.9 µM (inactive); in test [17] it was 20.3 µM (inactive); in test [18], 15.7 µM (inactive).

On to `CN(C)c1ccc(-c2[nH]c(=O)c3ccccc3[n+]2C)cc1`, for which the GI50 is > 100 µM (inactive) in test [2]; 60 µM (inactive) in test [3]; 46.7 µM (inactive) in test [4]; > 100 µM (inactive) in [6]; > 100 µM (inactive) in [7]; > 100 µM (inactive) in test [8]. In addition, the GI50 in test [9] was 63.4 µM (inactive); in test [20], 40.6 µM (inactive); in test [10], > 100 µM (inactive); in [11], > 100 µM (inactive); in test [12], 63.2 µM (inactive); in [14] it was 62.5 µM (inactive). Further, the GI50 in test [15] is > 100 µM (inactive); in test [16] it was 62.2 µM (inactive); in test [17], > 100 µM (inactive); in [18], 93.8 µM (inactive).

With `COC(=O)C12C3C4C1C1C2C3C41C(=O)OC(C)(C)C` (stereo not given), the GI50 in [2] was > 100 µM (inactive); in test [3] it was > 100 µM (inactive); in test [5] it was > 100 µM (inactive); in test [6] it was > 64.3 µM (inactive); in [7] it was > 100 µM (inactive); in test [8] it was > 63.5 µM (inactive). Further, the GI50 was > 100 µM (inactive) in test [19]; > 100 µM (inactive) in test [9]; > 100 µM (inactive) in test [20]; > 100 µM (inactive) in [10]; > 100 µM (inactive) in test [11]; > 49.2 µM (inactive) in test [12]. Also, the GI50 is > 42.9 µM (inactive) in [13]; > 100 µM (inactive) in [14]; > 100 µM (inactive) in [15]; > 64 µM (inactive) in test [16]; > 100 µM (inactive) in test [17]; 26.7 µM (inactive) in test [18].

Turning to `Cc1ccc(/C=C/C(=O)Oc2ccc(/C=C3\CCC/C(=C\c4ccc(OC(=O)/C=C/c5ccc(C)cc5)cc4)C3=O)cc2)cc1`, the GI50 in test [1] was > 100 µM (inactive); in [2], 29.1 µM (inactive); in test [3], > 100 µM (inactive); in test [4] it was > 100 µM (inactive); in test [5] it was > 100 µM (inactive); in test [6], > 100 µM (inactive). In addition, the GI50 was 31.4 µM (inactive) in test [7]; > 100 µM (inactive) in [8]; 48.3 µM (inactive) in [19]; > 100 µM (inactive) in test [9]; > 100 µM (inactive) in test [12]; > 100 µM (inactive) in [13]. Also, the GI50 in [14] is 37.3 µM (inactive); in [15], 16.7 µM (inactive); in [16], > 100 µM (inactive); in [17], 21.3 µM (inactive); in [18], > 100 µM (inactive).

On to `CCOC(=O)CCCSCCCC(=O)CCCSCCCC(=O)OCC`, for which the GI50 in test [1], in [2], in test [3], in [4], in test [5] and in test [6] was > 100 µM (inactive) in each case. The GI50 in [7], in [8], in [9], in [11], in test [13] and in test [15] was > 100 µM (inactive) throughout. Moreover, the GI50 in test [16], in test [17] and in test [18] was > 100 µM (inactive) throughout.

On to `COC(=O)C(C(=O)C(=O)Nc1cccc(O)c1)c1nc2ccc(Cl)cc2nc1O` (stereo not given), for which the GI50 in test [2], in [3], in test [5], in [6], in test [7] and in [8] was > 100 µM (inactive) in each case. The GI50 in test [19] was > 100 µM (inactive); in [9] it was > 100 µM (inactive); in [20] it was 71.6 µM (inactive); in [10], 74.3 µM (inactive); in test [11], > 100 µM (inactive); in [12], > 100 µM (inactive). The GI50 in test [13], in test [14], in [15], in [16], in test [17] and in test [18] was > 100 µM (inactive) in each case.

Consider `O=C(/C=C/c1ccccc1)Oc1ccc(C(=O)/C=C/c2ccc(Cl)cc2)cc1`, for which the GI50 in test [1] was 59.7 µM (inactive); in [2] it was > 100 µM (inactive); in test [4], 36.4 µM (inactive); in test [5], > 100 µM (inactive); in [6], > 100 µM (inactive); in test [7], > 100 µM (inactive). Moreover, the GI50 is 15.8 µM (inactive) in test [8]; > 100 µM (inactive) in test [19]; > 100 µM (inactive) in [9]; 97.3 µM (inactive) in test [10]; > 100 µM (inactive) in test [11]; 43.3 µM (inactive) in test [12]. The GI50 was > 100 µM (inactive) in test [14]; 31.9 µM (inactive) in [15]; > 100 µM (inactive) in [16]; 28 µM (inactive) in [17]; 83.4 µM (inactive) in test [18].
